In ChEMBL document CHEMBL5131566, “Small-Molecule Thioesters as SARS-CoV-2 Main Protease Inhibitors: Enzyme Inhibition, Structure-Activity Relationships, Antiviral Activity, and X-ray Structure Determination” (J Med Chem, 2022):

Columns and labels:
[1] = Inhibition of recombinant SARS CoV-1 main protease expressed using MCA-AVLQSGFR-K(DNP)-K-NH2 as substrate incubated for 2 hrs by FRET based assay; set-up: species or system Severe acute respiratory syndrome-related coronavirus
[2] = test system: Calu-3; assay: Cytotoxicity against human Calu-3 cells assessed as reduction in cell […] at 10 uM incubated for 24 hrs by cell titer glo luminescent assay; assay type: toxicity, cell-based; settings: calu-3, 24 h
[3] = biological target: Replicase polyprotein 1ab (Severe acute respiratory syndrome coronavirus 2) (UniProt P0DTD1); assay: Time dependent inhibition of recombinant his tagged SARS CoV-2 main protease expressed in Escherichia coli BL21 assessed as ratio of Kinact/Ki using MCA-AVLQSGFR-K(DNP)-K-NH2 as substrate pre-incubated for 5 mins followed by substrate addition measured after 60 mins by FRET based assay
[4] = biological target: T1, Replicase polyprotein 1ab (Severe acute respiratory syndrome coronavirus 2, UniProt P0DTD1); assay: Inhibition of recombinant his tagged SARS CoV-2 main protease expressed in Escherichia coli BL21 assessed as inhibition constant using Boc-Abu-Tle-Leu-Gln-AMC37 as fluorogenic substrate pre-incubated for 5 mins followed by substrate addition measured after 60 mins by FRET based assay
[5] = biological target: T1, Replicase polyprotein 1ab; assay: Inhibition of recombinant his tagged SARS CoV-2 main protease expressed in Escherichia coli BL21 using Boc-Abu-Tle-Leu-Gln-AMC37 as fluorogenic substrate pre-incubated for 5 mins followed by substrate addition measured after 60 mins by FRET based assay
[6] = Inhibition of MERS-CoV -Mpro using Ac-Abu-Tle-Leu-Gln-ACC as substrate incubated for 2 hrs by FRET based assay; set-up: species or system Middle East respiratory syndrome-related coronavirus
[7] = test system: Severe acute respiratory syndrome-related coronavirus; assay: Inhibition of recombinant SARS CoV-1 main protease expressed using MCA-AVLQSGFR-K(DNP)-K-NH2 as substrate at 10 uM incubated for 2 hrs by FRET based assay
[8] = test system: Vero 76; assay: Cytotoxicity against African green monkey Vero 76 cells assessed as reduction in cell […] at 10 uM incubated for 24 hrs by cell titer glo luminescent assay; assay type: toxicity, cell-based; settings: chlorocebus sabaeus, vero 76, 24 h
[9] = test system: SARS-CoV-2; assay: microbe, parasite or virus in culture; settings: Severe acute respiratory syndrome coronavirus 2, Calu-3
[10] = test system: SARS-CoV-2; assay: microbe, parasite or virus in culture; settings: Severe acute respiratory syndrome coronavirus 2, Vero 76
[11] = biological target: T1, Replicase polyprotein 1ab; assay: Inhibition of full length SARS CoV-2 main protease expressed in Escherichia coli BL21 (DE3) expression system using Mca-AVLQSGFR-K(Dnp)K as substrate by fluorescence method
[12] = biological target: Replicase polyprotein 1ab (Severe acute respiratory syndrome coronavirus 2) (UniProt P0DTD1); assay: Inhibition of recombinant his tagged SARS CoV-2 main protease expressed in Escherichia coli BL21 using Boc-Abu-Tle-Leu-Gln-AMC37 as fluorogenic substrate at 10 uM pre-incubated for 5 mins followed by substrate addition measured after 60 mins by FRET based assay relative to control
[13] = biological target: T1, Replicase polyprotein 1ab; assay: Inhibition of SARS CoV-2 main protease
[14] = Stability of the compound assessed as glutathione reactivity by measuring reduction at pH 7.4 by HPLC/MS method; assay type: physicochemical; settings: buffer

| Compound | Activity [2] | Ratio [3] | Ki [4] | IC50 [5] | IC50 [6] | Activity [8] | also measured |
| --- | --- | --- | --- | --- | --- | --- | --- |
| Cc1nnc(SC(=O)c2ccc(C#Cc3ccccc3)o2)s1 | Non-Toxic | 5200 M⁻¹ s⁻¹ | 34.4 nM | 250 nM | 378 nM | Non-Toxic | IC50 [1]: 2760 nM; inhibition [7]: > 50% |
| Cc1nnc(SC(=O)c2ccc(-c3ccccc3)o2)s1 | Non-Toxic |  |  | 34.4 nM |  | Non-Toxic | EC50 [9]: 100 nM |
| CCC(CC)COC(=O)[C@H](C)N[P@](=O)(OC[C@H]1O[C@@](C#N)(c2ccc3c(N)ncnn23)[C@H](O)[C@@H]1O)Oc1ccccc1 | Non-Toxic |  |  |  |  | Non-Toxic | EC50 [10]: 2.63 nM; EC50 [9]: 79.6 nM |
| COc1nnc(SC(=O)c2cc3ccccc3[nH]2)s1 | Non-Toxic |  | 84.4 nM | 147 nM | 503 nM | Non-Toxic | EC50 [9]: 38.3 nM |
| Cc1nnc(SC(=O)c2ccc3cc[nH]c3c2)s1 | Non-Toxic | 5850 M⁻¹ s⁻¹ | 186 nM | 54.7 nM | 271 nM | Non-Toxic |  |
| Cc1cc(C)nc(SC(=O)c2ccc(C#Cc3ccccc3)o2)n1 |  |  |  | 288 nM |  |  |  |
| Cc1ccnc(SC(=O)c2cc3ccccc3[nH]2)n1 | Non-Toxic |  | 33.2 nM | 87.6 nM | 1310 nM | Non-Toxic | IC50 [1]: 1520 nM; EC50 [10]: 185 nM; EC50 [9]: 734 nM; inhibition [7]: > 50% |
| O=C(NCCN1C(=O)C=CC1=O)c1cc2ccccc2[nH]1 |  |  |  |  |  |  | IC50 [11]: 2080 nM |
| O=C(Sc1nc2ccccc2s1)c1ccc(-c2ccccc2)o1 |  | 515 M⁻¹ s⁻¹ | 612 nM | 166 nM |  |  |  |
| CCOc1nnc(SC(=O)c2cc3ccccc3[nH]2)s1 |  |  |  |  |  |  | inhibition [12]: 37% |
| O=C(Sc1ncccn1)c1cc2ccccc2[nH]1 | Non-Toxic |  | 14.1 nM | 11.4 nM | 303 nM | Non-Toxic | IC50 [1]: 60 nM; EC50 [9]: 111 nM; inhibition [7]: > 50% |
| Cc1nnc(SC(=O)c2ccc(Br)o2)s1 |  |  |  | 481 nM |  |  |  |
| Cc1nnc(SC(=O)c2ccc3[nH]ccc3c2)s1 | Non-Toxic | 3370 M⁻¹ s⁻¹ | 393 nM | 72.3 nM | 945 nM | Non-Toxic | IC50 [1]: 7350 nM |
| Cc1nnc(SC(=O)c2cc3ccccc3o2)s1 |  | 5190 M⁻¹ s⁻¹ | 35.7 nM | 316 nM |  |  |  |
| O=C(Sc1ccc(Cl)cc1Cl)c1cc2ccccc2[nH]1 |  |  |  |  |  |  | inhibition [12]: 9% |
| Oc1ccc2ccccc2c1SSc1c(O)ccc2ccccc12 |  |  |  |  |  |  | IC50 [11]: 2350 nM |
| Cc1nnc(SC(=O)c2ccc(-c3ccccc3)[nH]2)s1 |  | 5070 M⁻¹ s⁻¹ | 605 nM | 235 nM |  |  |  |
| O=C(Sc1ncccn1)c1ccc(-c2ccccc2)s1 |  |  |  | 13.7 nM |  |  |  |
| O=C(Sc1nncs1)c1cc2ccccc2[nH]1 | Non-Toxic |  | 74.4 nM | 143 nM | 535 nM | Non-Toxic | IC50 [1]: 3210 nM; EC50 [10]: 642 nM; EC50 [9]: 562 nM; inhibition [7]: > 50% |
| Cc1nnc(SC(=O)c2cc3ccccc3[nH]2)o1 |  | 3880 M⁻¹ s⁻¹ | 119 nM | 1220 nM |  |  |  |
| CSc1nnc(SC(=O)c2cc3ccccc3[nH]2)s1 | Non-Toxic | 11800 M⁻¹ s⁻¹ | 43 nM | 91.4 nM | 1130 nM | Non-Toxic |  |
| O=C(Sc1nnc(C(F)(F)F)s1)c1cc2ccccc2[nH]1 |  |  |  |  |  |  | inhibition [12]: 26% |
| O=C(Sc1nnc(C(F)(F)F)s1)c1ccc(C#Cc2ccccc2)o1 |  |  |  |  |  |  | inhibition [12]: 14% |

| Compound | Activity [2] | Ratio [3] | Ki [4] | IC50 [5] | IC50 [6] | Activity [8] | also measured |
| --- | --- | --- | --- | --- | --- | --- | --- |
| S=C(SSC(=S)N1CCOCC1)N1CCOCC1 |  |  |  |  |  |  | IC50 [13]: 4030 nM |
| O=C(Sc1ccc(Cl)cc1)c1cc2ccccc2[nH]1 |  |  |  |  |  |  | inhibition [12]: 4% |
| O=C(Oc1cncc(Cl)c1)c1cccc2[nH]ccc12 | Non-Toxic |  |  |  |  | Non-Toxic | EC50 [10]: 9.59 nM; EC50 [9]: 28.5 nM |
| Cc1nnc(SC(=O)c2cccc3[nH]ccc23)s1 | Non-Toxic |  |  | 60 nM | 486 nM | Non-Toxic | EC50 [9]: 367 nM |
| O=C(Sc1ncccn1)c1ccc2ccccc2n1 | Non-Toxic |  |  | 20.6 nM | 613 nM | Non-Toxic | IC50 [1]: 253 nM; inhibition [7]: > 50% |
| O=C(Sc1ncccn1)c1cc2ccccc2s1 |  |  |  | 15.5 nM |  |  |  |
| Cc1nnc(SC(=O)c2cc3ccccc3n2C)s1 | Non-Toxic |  | 295 nM | 349 nM | 223 nM | Non-Toxic | EC50 [10]: 4.58 nM; EC50 [9]: 659 nM |
| O=C(Sc1ncccn1)c1ccc(-c2ccccc2)o1 | Non-Toxic |  |  | 18.1 nM | 79 nM | Non-Toxic |  |
| Cc1nnc(SC(=O)c2cccc3cc[nH]c23)s1 | Non-Toxic |  | 250 nM | 159 nM | 196 nM | Non-Toxic | IC50 [1]: 2150 nM; EC50 [9]: 437 nM; inhibition [7]: > 50% |
| O=C(Sc1nc2ccccc2s1)c1cc2ccccc2s1 |  | 2000 M⁻¹ s⁻¹ | 161 nM | 190 nM |  |  |  |
| O=C(Sc1nc2ccccc2s1)c1ccc2ccccc2n1 |  | 5450 M⁻¹ s⁻¹ | 51 nM | 88.9 nM |  |  | Stability [14]: Stable |
| CC(C)C[C@H](NC(=O)OCc1ccccc1)C(=O)N[C@H](C=O)CC1CCNC1=O (stereo partly drawn) |  |  |  |  | 78 nM |  | IC50 [1]: 44.6 nM |
| Cc1nnc(SC(=O)c2ccc3ccccc3c2)s1 | Non-Toxic |  | 21.1 nM | 454 nM | 526 nM | Non-Toxic | IC50 [1]: 1650 nM; EC50 [9]: 45 nM; inhibition [7]: > 50% |
| O=C(Sc1nc2ccccc2s1)c1ccc(-c2ccc(Br)cc2)o1 |  | 1490 M⁻¹ s⁻¹ | 13 nM | 255 nM |  |  |  |
| Cc1nnc(SC(=O)c2cc3ccccc3[nH]2)s1 |  |  |  | 624 nM |  |  |  |
| COc1ccc2cc([C@H](C)C(=O)Sc3ncccn3)ccc2c1 |  | 33900 M⁻¹ s⁻¹ | 21 nM | 551 nM |  |  |  |
| Cc1cc(C)nc(SC(=O)c2cc3ccccc3[nH]2)n1 |  | 1790 M⁻¹ s⁻¹ | 773 nM | 2030 nM |  |  |  |
| O=C(Sc1nc2ccccc2s1)c1cc2ccccc2[nH]1 | Non-Toxic |  | 72.6 nM | 117 nM |  | Non-Toxic | EC50 [9]: 137 nM |
| CCOc1ccc2cc(C(=O)Sc3nccc(C)n3)[nH]c2c1 |  |  |  |  |  |  | inhibition [12]: -8% |
| Cc1nnc(SC(=O)c2cc3ccccc3[nH]2)n1C(=O)c1cc2ccccc2[nH]1 |  | 12200 M⁻¹ s⁻¹ | 77.3 nM | 281 nM |  |  |  |
| O=C(Sc1ncccn1)c1ccc(-c2ccc(Br)cc2)s1 | Non-Toxic |  |  | 14.4 nM |  | Non-Toxic |  |
| O=C(Sc1nc2ccccc2s1)c1cc2ccccc2o1 |  |  |  |  |  |  | inhibition [12]: 14% |
| O=C(Sc1nc2ccccc2s1)c1ccc(-c2ccccc2)s1 |  | 2100 M⁻¹ s⁻¹ | 42 nM | 125 nM |  |  |  |
